pEC50: −log10 of the molar value.

Tested on in one data set: not given
Test: not given
The following applies: in water; cited from earlier work.
In the case of `CCCCCCCCCCCCCCO[C@@H]1O[C@H](CO)[C@@H](O[C@@H]2O[C@@H](CO)[C@H](O)[C@@H](O)[C@@H]2O)[C@H](O)[C@H]1O` (stereo in doubt) [Tetradecyl maltoside], the CMC is 0.01 mM.
On to `CCCCCCCCCCCCO[C@@H]1O[C@H](CO)[C@@H](O[C@H]2O[C@H](CO)[C@@H](O)[C@H](O)[C@H]2O)[C@H](O)[C@H]1O` [Dodecyl-β-D-maltoside], for which the CMC is 0.17 mM.
Consider `CCCCCCCCO[C@@H]1O[C@H](CO)[C@@H](O[C@H]2O[C@H](CO)[C@@H](O)[C@H](O)[C@H]2O)[C@H](O)[C@H]1O` [Octyl maltoside], for which the CMC is recorded as 19.5 mM.
`CCCCCCCCCCO[C@@H]1O[C@H](CO)[C@@H](O[C@H]2O[C@H](CO)[C@@H](O)[C@H](O)[C@H]2O)[C@H](O)[C@H]1O` [Decyl maltoside]: the CMC is given as 1.8 mM.
For Sucrose dodecanoate, the CMC was 0.3 mM.
Consider `CCCCCCCCCCCCCO[C@@H]1O[C@H](CO)[C@@H](OC2OC(CO)C(O)C(O)C2O)[C@H](O)[C@H]1O` (stereo in doubt) [Tridecyl maltoside], for which the CMC is given as 0.03 mM.

The next data set deals with T1, glucagon R (Homo sapiens, UniProt P47871).
T1 construct: Cerep SA
T1 sequence (P47871 26-477): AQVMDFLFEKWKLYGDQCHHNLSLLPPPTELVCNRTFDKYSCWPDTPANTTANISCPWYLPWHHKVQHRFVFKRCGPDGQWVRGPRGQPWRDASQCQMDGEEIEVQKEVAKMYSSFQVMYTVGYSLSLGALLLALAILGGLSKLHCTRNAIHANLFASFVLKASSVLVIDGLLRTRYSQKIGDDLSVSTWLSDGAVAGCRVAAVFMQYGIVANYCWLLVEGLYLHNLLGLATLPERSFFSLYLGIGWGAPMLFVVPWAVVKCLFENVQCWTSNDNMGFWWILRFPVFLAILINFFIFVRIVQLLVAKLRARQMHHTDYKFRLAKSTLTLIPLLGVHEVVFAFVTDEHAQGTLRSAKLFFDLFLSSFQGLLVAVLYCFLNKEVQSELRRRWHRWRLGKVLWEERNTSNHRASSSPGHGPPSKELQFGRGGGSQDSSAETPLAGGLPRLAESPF
In words: glucagon cellular assay, stimulation of cAMP levels (Cerep SA). Format: cell-based. The following applies: cAMP generated in cells; n.c. means EC50 not calculable.
Method: Compounds were weighed precisely in an amount of approximately 1 mg and assayed in standard cellular assays (Cerep SA). The readout is the amount of cAMP generated in the cells treated with the test compounds, in either agonist or antagonist mode.
One may read the pEC50 as the negative decadic logarithm of the EC50, by convention in mol/L. In the case of `CCCCCCCCCCCCO[C@@H]1O[C@H](C(=O)NCCCC[C@H](NC(=O)[C@@H]2CCCCNC(=O)CC[C@H](NC(=O)[C@H](CC(=O)O)NC(=O)[C@H](CC(C)C)NC(=O)[C@H](Cc3ccc(O)cc3)NC(=O)[C@H](CCCCN)NC(=O)[C@H](CO)NC(=O)[C@H](Cc3ccc(O)cc3)NC(=O)[C@H](CC(=O)O)NC(=O)[C@H](CO)NC(=O)[C@@H](NC(=O)[C@H](Cc3ccccc3)NC(=O)[C@@H](NC(=O)CNC(=O)[C@H](CCC(N)=O)NC(=O)C(C)(C)NC(=O)[C@@H](N)Cc3c[nH]cn3)[C@@H](C)O)[C@@H](C)O)C(=O)N[C@@H](CCCNC(=N)N)C(=O)N[C@@H](C)C(=O)N[C@@H](C)C(=O)N2)C(=O)N[C@@H](Cc2ccccc2)C(=O)NC(C)(C)C(N)=O)[C@@H](O)[C@H](O)[C@H]1O` [EU-A455], the pEC50 was 6.11.

Source of the values: patent US10471127B2, “Peptide pharmaceuticals for insulin resistance” (Mederis Diabetes, LLC, priority 2011, dated 2019).
